Reference: US9120770B2, “Substituted pyridine and pyrazine compounds as PDE4 inhibitors” (DART NEUROSCIENCE (CAYMAN) LTD., priority 2013, dated 2015)

Biological target: PDE4D3 (Homo sapiens, UniProt Q08499)
Sequence (Q08499 1-673 isoform Q08499-2): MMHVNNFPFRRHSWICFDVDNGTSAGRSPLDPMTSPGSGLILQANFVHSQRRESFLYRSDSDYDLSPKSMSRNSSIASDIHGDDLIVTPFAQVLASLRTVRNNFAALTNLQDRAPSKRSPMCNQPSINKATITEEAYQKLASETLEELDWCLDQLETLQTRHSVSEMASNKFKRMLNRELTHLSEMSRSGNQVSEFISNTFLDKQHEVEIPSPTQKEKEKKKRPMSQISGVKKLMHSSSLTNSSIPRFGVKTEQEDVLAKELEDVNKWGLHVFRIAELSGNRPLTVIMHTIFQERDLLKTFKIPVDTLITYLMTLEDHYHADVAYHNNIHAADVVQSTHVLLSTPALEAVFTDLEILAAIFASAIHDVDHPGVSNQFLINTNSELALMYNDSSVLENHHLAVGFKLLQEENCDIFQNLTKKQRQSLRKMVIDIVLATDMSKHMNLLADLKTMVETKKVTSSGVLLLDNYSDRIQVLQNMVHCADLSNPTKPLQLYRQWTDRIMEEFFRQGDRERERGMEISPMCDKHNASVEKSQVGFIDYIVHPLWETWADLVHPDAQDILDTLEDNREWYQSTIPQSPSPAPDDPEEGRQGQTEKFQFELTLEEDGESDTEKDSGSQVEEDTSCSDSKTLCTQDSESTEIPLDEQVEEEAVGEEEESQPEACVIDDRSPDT

Row | EC50 | SMILES
1 | > 10000 nM | COc1cccc(-c2cc(Cn3cncn3)cnc2OC(F)F)c1 [Example 175, 2-(Difluoromethoxy)-3-(3-methoxyphenyl)-5-(1H-1,2,4-triazol-1-ylmethyl)pyridine]
2 | < 100 nM | CCOc1ncc(Cn2cnc(C(F)(F)F)n2)cc1-c1cccc(OC(F)F)c1 [Example 163, 3-[3-(Difluoromethoxy)phenyl]-2-ethoxy-5-{[3-(trifluoromethyl)-1H-1,2,4-triazol-1-yl]methyl}pyridine]
3 | 100 to 1000 nM | Cc1cccc(-c2cc(Cn3cncn3)cnc2OC(F)F)c1 [Example 12, 2-(Difluoromethoxy)-3-(3-methylphenyl)-5-(1H-1,2,4-triazol-1-ylmethyl)pyridine]
4 | 1000 to 10000 nM | COc1ncc(C(N)c2ccc(F)cc2)cc1-c1cccc(Cl)c1 (centres unmarked) [Example 18, [5-(3-Chlorophenyl)-6-methoxypyridin-3-yl](4-fluorophenyl)methanamine]
5 | 100 to 1000 nM | COc1ncc(Cn2cnc(C3CC3)n2)cc1-c1cccc(Cl)c1 [Example 147, 3-(3-Chlorophenyl)-5-[(3-Cyclopropyl-1H-1,2,4-triazol-1-yl)methyl]-2-methoxypyridine]
6 | < 100 nM | CCOc1ncc(Cn2cnc(CO)n2)cc1-c1cccc(Cl)c1 [Example 203, (1-((5-(3-Chlorophenyl)-6-ethoxypyridin-3-yl)methyl)-1H-1,2,4-triazol-3-yl)methanol]
7 | 100 to 1000 nM | COc1ncc(Cc2cnc(N(C)C)nc2)cc1-c1cccc(Cl)c1 [Example 83, 5-{[5-(3-Chlorophenyl)-6-methoxypyridin-3-yl]methyl}-N,N-dimethylpyrimidin-2-amine]
8 | 1000 to 10000 nM | COc1ncnn1Cc1cnc(OC(F)F)c(-c2cccc(Cl)c2)c1 [Example 215, 3-(3-Chlorophenyl)-2-(difluoromethoxy)-5-[(5-methoxy-1H-1,2,4-triazol-1-yl)methyl]pyridine]
9 | 100 to 1000 nM | CCOc1ncc(Cn2cc(Cl)c(N)n2)cc1-c1cccc(Cl)c1 [Example 234, 4-Chloro-1-{[5-(3-chlorophenyl)-6-ethoxypyridin-3-yl]methyl}-1H-pyrazol-3-amine]
10 | 100 to 1000 nM | COc1ncc(Cn2cncn2)cc1-c1cccc(OC(F)(F)F)c1 [Example 137, 2-Methoxy-5-(1H-1,2,4-triazol-1-ylmethyl)-3-[3-(trifluoromethoxy)phenyl]pyridine]
11 | 100 to 1000 nM | CCOc1ncc(Cn2cnc(CO)n2)nc1-c1cccc(OC(F)F)c1 [Example 208, [1-({6-[3-(Difluoromethoxy)phenyl]-5-ethoxypyrazin-2-yl}methyl)-1H-1,2,4-triazol-3-yl]methanol]
12 | < 100 nM | CCOc1ncc(Cn2cc(CO)nn2)cc1-c1cccc(OC(F)F)c1 [Example 263, [1-({5-[3-(Difluoromethoxy)phenyl]-6-ethoxypyridin-3-yl}methyl)-1H-1,2,3-triazol-4-yl]methanol]
13 | 100 to 1000 nM | COc1ncc(Cn2cncn2)cc1-c1cccc(F)c1 [Example 129, 3-(3-Fluorophenyl)-2-methoxy-5-(1H-1,2,4-triazol-1-ylmethyl)pyridine]
14 | 1000 to 10000 nM | CCOc1ncc(Cn2ncnc2[N+](=O)[O-])nc1-c1cccc(OC(F)F)c1 [Example 194, 3-(3-(Difluoromethoxy)phenyl)-2-ethoxy-5-((5-nitro-1H-1,2,4-triazol-1-yl)methyl)pyrazine]
15 | < 100 nM | COc1ncc(Cn2ccnc2)cc1-c1cccc(Cl)c1 [Example 173, 3-(3-Chlorophenyl)-5-(1H-imidazol-1-ylmethyl)-2-methoxypyridine]
16 | 1000 to 10000 nM | COc1ncc(Cc2ccc(=O)n(C)c2)cc1-c1cccc(Cl)c1 [Example 52, 5-{[5-(3-Chlorophenyl)-6-methoxypyridin-3-yl]methyl}-1-methyl-1,2-dihydropyridin-2-one]

Row | EC50 | SMILES
17 | < 100 nM | FC(F)Oc1ncc(Cc2cn[nH]c2)cc1-c1cccc(Cl)c1 [Example 28, 5-((1H-Pyrazol-4-yl)methyl)-3-(3-chlorophenyl)-2-(difluoromethoxy)pyridine]
18 | > 10000 nM | COc1cccc(-c2cc(Cn3cncn3)cnc2OC)n1 [Example 4, 2-Methoxy-3-(6-methoxypyridin-2-yl)-5-(1H-1,2,4-triazol-1-ylmethyl)pyridine]
19 | 100 to 1000 nM | CS(=O)(=O)c1ccc(Cc2cnc(OC(F)F)c(-c3cccc(Cl)c3)c2)cc1 [Example 45, 3-(3-Chlorophenyl)-2-(difluoromethoxy)-5-[(4-methanesulfonylphenyl)methyl]pyridine]
20 | > 10000 nM | COc1ncc(Cn2ncnc2C(C)(C)O)cc1-c1cccc(Cl)c1 [Example 249, 2-(1-{[5-(3-Chlorophenyl)-6-methoxypyridin-3-yl]methyl}-1H-1,2,4-triazol-5-yl)propan-2-ol]
21 | 100 to 1000 nM | FC(F)Oc1ncc(Cc2cnc(NC3CC3)nc2)cc1-c1cccc(Cl)c1 [Example 91, 5-{[5-(3-Chlorophenyl)-6-(difluoromethoxy)pyridin-3-yl]methyl}-N-cyclopropylpyrimidin-2-amine]
22 | < 100 nM | COc1ncc(Cc2cnc(N)nc2)nc1-c1cccc(Cl)c1 [Example 87, 5-{[6-(3-Chlorophenyl)-5-methoxypyrazin-2-yl]methyl}pyrimidin-2-amine]
23 | < 100 nM | COc1ncc(Cn2cc(CO)cn2)cc1-c1cccc(OC(F)F)c1 [Example 272, [1-({5-[3-(Difluoromethoxy)phenyl]-6-methoxypyridin-3-yl}methyl)-1H-pyrazol-4-yl]methanol]
24 | 1000 to 10000 nM | CCOc1ncc(Cn2cnc(CF)n2)nc1-c1cccc(OC(F)F)c1 [Example 257, 3-[3-(Difluoromethoxy)phenyl]-2-ethoxy-5-{[3-(fluoromethyl)-1H-1,2,4-triazol-1-yl]methyl}pyrazine]
25 | 1000 to 10000 nM | COc1ncc(Cn2cnnc2C)cc1-c1cccc(Cl)c1 [Example 138, 3-(3-Chlorophenyl)-2-methoxy-5-[(3-methyl-4H-1,2,4-triazol-4-yl)methyl]pyridine]
26 | 100 to 1000 nM | COc1ncc(Cn2cnc(N)n2)cc1-c1cccc(Cl)c1 [Example 218, 1-{[5-(3-Chlorophenyl)-6-methoxypyridin-3-yl]methyl}-1H-1,2,4-triazol-3-amine]
27 | 100 to 1000 nM | CCOc1ncc(Cn2cnc(C(=O)OC)n2)nc1-c1cccc(OC(F)F)c1 [Example 191, Methyl 1-((6-(3-(difluoromethoxy)phenyl)-5-ethoxypyrazin-2-yl)methyl)-1H-1,2,4-triazole-3-carboxylate]
28 | 1000 to 10000 nM | COc1ncc(Cn2ccccc2=O)cc1-c1cccc(Cl)c1 [Example 177, 1-{[5-(3-Chlorophenyl)-6-methoxypyridin-3-yl]methyl}-1,2-dihydropyridin-2-one]
29 | < 100 nM | COc1ncc(Cc2cncs2)cc1-c1cccc(Cl)c1 [Example 65, 3-(3-Chlorophenyl)-2-methoxy-5-(1,3-thiazol-5-ylmethyl)pyridine]
30 | 1000 to 10000 nM | COCc1ncnn1Cc1cnc(OC(F)F)c(-c2cccc(Cl)c2)c1 [Example 158, 3-(3-Chlorophenyl)-2-(difluoromethoxy)-5-{[5-(methoxymethyl)-1H-1,2,4-triazol-1-yl]methyl}pyridine]
31 | 100 to 1000 nM | COc1ncc(Cc2ccnc(N)c2)cc1-c1cccc(Cl)c1 [Example 60, 4-{[5-(3-Chlorophenyl)-6-methoxypyridin-3-yl]methyl}pyridin-2-amine]
32 | 1000 to 10000 nM | COc1ncc(C(C)(O)c2ccc(F)cc2)cc1-c1cccc(Cl)c1 (centres unmarked) [Example 15, 1-[5-(3-Chlorophenyl)-6-methoxypyridin-3-yl]-1-(4-fluorophenyl)ethan-1-ol]
